According to PMC6804253, “Predicting and Experimentally Validating Hot-Spot Residues at Protein–Protein Interfaces” (ACS Chemical Biology, 2019):
Where two headings read alike, the source gives them in different places.

What was measured:
[1] = system: PPIs of the SKEMPI data set (by PDBID); assay: SKEMPI experimental ΔΔG, single mutations to alanine; assay type: binding; conditions: for sk_class: class of the SKEMPI experimental ΔΔG
[2] = system: PPIs of the SKEMPI data set (by PDBID); conditions: ref SKEMPI, cited from earlier work; for sk_ddG_kJ (SKEMPI experimental ΔΔG, mutation to alanine) / sk_ddG_kJ (SKEMPI experimental ΔΔG) / sk_ddG_kJ: single mutation to alanine; for sk_ddG_kJ (SKEMPI experimental ΔΔG, mutation to alanine): sheet sortedByGroup, r_group DERKH; for sk_ddG_kJ (SKEMPI experimental ΔΔG): complex given by PDBID; for sk_ddG_kJ: SKEMPI experimental ΔΔG of binding; for sk_ddG_kJ (SKEMPI experimental ΔΔG of binding, mutation to alanine): single mutation to alanine in the complex of the given PDBID
[3] = class by ΔΔG threshold 4.184 kJ/mol, ref SKEMPI
[4] = class by the 4.184 kJ/mol threshold, r_group DERKH
[5] = Positive / Neutral / Negative by ΔΔG threshold 4.184 kJ/mol, ref SKEMPI

1A22 KA172A
sk_class (class of the SKEMPI experimental ΔΔG) [1, 3]: Positive (positive (a hot residue) ΔΔG ≥ 4.184 kJ/mol) | sk_ddG_kJ (SKEMPI experimental ΔΔG, mutation to alanine) ([2]; PPI given by PDBID): 8.37 kJ

1A22 CA182A
sk_class [1]: Positive (positive (a hot residue) ΔΔG ≥ 4.184 kJ/mol) | sk_ddG_kJ (SKEMPI experimental ΔΔG) ([2]; mutation by mut_pdb): 4.23 kJ

1GC1 KC8A
sk_class (class of the SKEMPI experimental ΔΔG) [1, 4]: Neutral (neutral (little effect) 4.184 kJ/mol < ΔΔG > −4.184 kJ/mol) | sk_ddG_kJ (SKEMPI experimental ΔΔG, mutation to alanine) ([2]; complex by PDBID): 0.46 kJ

1A4Y NB68A
sk_class [1]: Neutral (neutral (little effect) 4.184 kJ/mol < ΔΔG > −4.184 kJ/mol) | sk_ddG_kJ (SKEMPI experimental ΔΔG) ([2]; residue group SQNT): 0.50 kJ

1A22 DA171A
sk_class (class of the SKEMPI experimental ΔΔG) [1, 3]: Neutral (neutral (little effect) 4.184 kJ/mol < ΔΔG > −4.184 kJ/mol) | sk_ddG_kJ (SKEMPI experimental ΔΔG, mutation to alanine) ([2]; PPI given by PDBID): 3.35 kJ

1A22 RA19A
sk_class (class of the SKEMPI experimental ΔΔG) [1, 3]: Neutral (neutral (little effect) 4.184 kJ/mol < ΔΔG > −4.184 kJ/mol) | sk_ddG_kJ (SKEMPI experimental ΔΔG, mutation to alanine) ([2]; PPI given by PDBID): 0.21 kJ

1A22 KA70A
sk_class (class of the SKEMPI experimental ΔΔG) [1, 3]: Neutral (neutral (little effect) 4.184 kJ/mol < ΔΔG > −4.184 kJ/mol) | sk_ddG_kJ (SKEMPI experimental ΔΔG, mutation to alanine) ([2]; PPI given by PDBID): 2.18 kJ

1A22 SA57A
sk_class [1]: Neutral (neutral (little effect) 4.184 kJ/mol < ΔΔG > −4.184 kJ/mol) | sk_ddG_kJ (SKEMPI experimental ΔΔG) ([2]; mutation by mut_pdb): 0.84 kJ

1A4Y RB66A
sk_class ([1]; ref SKEMPI): Neutral (neutral (little effect) 4.184 kJ/mol < ΔΔG > −4.184 kJ/mol) | sk_ddG_kJ ([2]; complex by PDBID): 0.84 kJ

1A22 RA183A
sk_class (class of the SKEMPI experimental ΔΔG) [1, 3]: Neutral (neutral (little effect) 4.184 kJ/mol < ΔΔG > −4.184 kJ/mol) | sk_ddG_kJ (SKEMPI experimental ΔΔG, mutation to alanine) ([2]; PPI given by PDBID): 2.09 kJ

1A22 QA29A
sk_class [1]: Neutral (neutral (little effect) 4.184 kJ/mol < ΔΔG > −4.184 kJ/mol) | sk_ddG_kJ (SKEMPI experimental ΔΔG) ([2]; mutation by mut_pdb): -2.51 kJ

1A4Y RB33A
sk_class ([1]; ref SKEMPI): Neutral (neutral (little effect) 4.184 kJ/mol < ΔΔG > −4.184 kJ/mol) | sk_ddG_kJ ([2]; complex by PDBID): 1.38 kJ

1A22 RA178A
sk_class (class of the SKEMPI experimental ΔΔG) [1, 3]: Positive (positive (a hot residue) ΔΔG ≥ 4.184 kJ/mol) | sk_ddG_kJ (SKEMPI experimental ΔΔG, mutation to alanine) ([2]; PPI given by PDBID): 10.04 kJ

1A22 SA71A
sk_class [1]: Neutral (neutral (little effect) 4.184 kJ/mol < ΔΔG > −4.184 kJ/mol) | sk_ddG_kJ (SKEMPI experimental ΔΔG) ([2]; mutation by mut_pdb): 1.72 kJ

1GC1 DC53A
sk_class (class of the SKEMPI experimental ΔΔG) [1, 4]: Neutral (neutral (little effect) 4.184 kJ/mol < ΔΔG > −4.184 kJ/mol) | sk_ddG_kJ (SKEMPI experimental ΔΔG, mutation to alanine) ([2]; complex by PDBID): 1.26 kJ

1A4Y EB108A
sk_class ([1]; ref SKEMPI): Neutral (neutral (little effect) 4.184 kJ/mol < ΔΔG > −4.184 kJ/mol) | sk_ddG_kJ ([2]; complex by PDBID): -1.34 kJ

1A22 KA168A
sk_class (class of the SKEMPI experimental ΔΔG) [1, 3]: Neutral (neutral (little effect) 4.184 kJ/mol < ΔΔG > −4.184 kJ/mol) | sk_ddG_kJ (SKEMPI experimental ΔΔG, mutation to alanine) ([2]; PPI given by PDBID): -0.84 kJ

1GC1 KC35A
sk_class (class of the SKEMPI experimental ΔΔG) [1, 4]: Neutral (neutral (little effect) 4.184 kJ/mol < ΔΔG > −4.184 kJ/mol) | sk_ddG_kJ (SKEMPI experimental ΔΔG, mutation to alanine) ([2]; complex by PDBID): 1.34 kJ

1A22 QA68A
sk_class [1]: Neutral (neutral (little effect) 4.184 kJ/mol < ΔΔG > −4.184 kJ/mol) | sk_ddG_kJ (SKEMPI experimental ΔΔG) ([2]; mutation by mut_pdb): 2.51 kJ

1A22 FA10A
sk_class (class of the SKEMPI experimental ΔΔG) [1, 5]: Positive (positive (a hot residue) ΔΔG ≥ 4.184 kJ/mol) | sk_ddG_kJ (SKEMPI experimental ΔΔG of binding, mutation to alanine) [2]: 4.35 kJ

1GC1 EC92A
sk_class (class of the SKEMPI experimental ΔΔG) [1, 4]: Neutral (neutral (little effect) 4.184 kJ/mol < ΔΔG > −4.184 kJ/mol) | sk_ddG_kJ (SKEMPI experimental ΔΔG, mutation to alanine) ([2]; complex by PDBID): 0.08 kJ

1A22 RA64A
sk_class (class of the SKEMPI experimental ΔΔG) [1, 3]: Positive (positive (a hot residue) ΔΔG ≥ 4.184 kJ/mol) | sk_ddG_kJ (SKEMPI experimental ΔΔG, mutation to alanine) ([2]; PPI given by PDBID): 6.69 kJ

1A22 LA73A
sk_class (class of the SKEMPI experimental ΔΔG) [1, 5]: Neutral (neutral (little effect) 4.184 kJ/mol < ΔΔG > −4.184 kJ/mol) | sk_ddG_kJ (SKEMPI experimental ΔΔG of binding, mutation to alanine) [2]: -0.84 kJ

1A22 SA184A
sk_class [1]: Neutral (neutral (little effect) 4.184 kJ/mol < ΔΔG > −4.184 kJ/mol) | sk_ddG_kJ (SKEMPI experimental ΔΔG) ([2]; mutation by mut_pdb): -0.21 kJ

1A22 QA181A
sk_class [1]: Neutral (neutral (little effect) 4.184 kJ/mol < ΔΔG > −4.184 kJ/mol) | sk_ddG_kJ (SKEMPI experimental ΔΔG) ([2]; mutation by mut_pdb): 1.13 kJ

1A22 FA191A
sk_class (class of the SKEMPI experimental ΔΔG) [1, 5]: Neutral (neutral (little effect) 4.184 kJ/mol < ΔΔG > −4.184 kJ/mol) | sk_ddG_kJ (SKEMPI experimental ΔΔG of binding, mutation to alanine) [2]: 0.79 kJ

1A22 RA8A
sk_class (class of the SKEMPI experimental ΔΔG) [1, 3]: Neutral (neutral (little effect) 4.184 kJ/mol < ΔΔG > −4.184 kJ/mol) | sk_ddG_kJ (SKEMPI experimental ΔΔG, mutation to alanine) ([2]; PPI given by PDBID): 0.84 kJ

1A22 HA21A
sk_class (class of the SKEMPI experimental ΔΔG) [1, 3]: Neutral (neutral (little effect) 4.184 kJ/mol < ΔΔG > −4.184 kJ/mol) | sk_ddG_kJ (SKEMPI experimental ΔΔG, mutation to alanine) ([2]; PPI given by PDBID): 0.84 kJ

1A22 LA15A
sk_class (class of the SKEMPI experimental ΔΔG) [1, 5]: Neutral (neutral (little effect) 4.184 kJ/mol < ΔΔG > −4.184 kJ/mol) | sk_ddG_kJ (SKEMPI experimental ΔΔG of binding, mutation to alanine) [2]: 0.63 kJ

1A22 SA188A
sk_class [1]: Neutral (neutral (little effect) 4.184 kJ/mol < ΔΔG > −4.184 kJ/mol) | sk_ddG_kJ (SKEMPI experimental ΔΔG) ([2]; mutation by mut_pdb): -0.84 kJ
